Data taken from patent EP0241837B1, “Stable injectable antiemetic compositions” (Bristol-Myers Squibb Company, priority 1986, dated 1987).
Where two headings read alike, the source gives them in different places.

Assay: Stability of Compound Ia (5 mg/ml) in aqueous solutions on storage at 56°C
Format: physicochemical
Conditions: for % Remaining (8 weeks): 80640 min; for remaining at 168 h: 1 week; for remaining at 336 h: 2 weeks
Protocol: The compounds of Formula I in aqueous, isotonic (isotonicity adjusted with sodium chloride and/or dextrose) and buffered ([…], pH 5.7 and 6.5) formulations containing the equivalent of 5 mg of free base of a compound of Formula I per ml have been found unsuitable for long term shelf life. Typical isotonic and buffered formulations lost 33% and 40%, respectively, of their potency following storage for eight weeks at 56°C. […] Tables 1 and 2 give the results of stability tests on the compound of Formula Ia in water and in isotonic saline, and in citrate buffers, respectively.
Tables 3 and 4, below, provide stability data for some of the stable injectable formulations of the present invention.

[1] = 0.01m citrate buffer, pH 5.7, 5 mg/ml in 0.01M citrate buffer pH 5.7, 56°C, average of duplicate samples, read-out: % Remaining(a) (pH 5.7)
[2] = 0.01m citrate buffer, pH 6.5, 5 mg/ml in 0.01M citrate buffer pH 6.5, 56°C, average of duplicate samples, read-out: % Remaining(a) (pH 6.5)
[3] = isotonic saline, 5mg/ml in isotonic saline, 56°C, average of duplicate samples, read-out: % Remaining(a) (Isotonic Saline)
[4] = water, 5mg/ml in water, 56°C, average of duplicate samples, read-out: % Remaining(a) (Water)

For `CCN(CC)CCNC(=O)c1cc(Cl)c(N)cc1OC(C)C(C)=O` (stereo not shown) [Compound Ia, 4-amino-2-(2-butanon-3-yl)-oxy-5-chloro-N-[2-(diethylamino)ethyl]benzamide], the “% Remaining(a) (pH 5.7)” value (5 mg/ml in 0.01M citrate buffer pH 5.7, 56°C, Initial, average of duplicate samples) was 100.0%, the “% Remaining(a) (pH 6.5)” value (5 mg/ml in 0.01M citrate buffer pH 6.5, 56°C, Initial, average of duplicate samples) was 100.0% and the “% Remaining(a) (Isotonic Saline)” value (5mg/ml in isotonic saline, 56°C, Initial, average of duplicate samples) was 100.0%. For the same molecule, the “% Remaining(a) (Water)” value (5mg/ml in water, 56°C, Initial, average of duplicate samples) was 100.0%, the “% Remaining (8 weeks)” value (5mg/ml, Ethanol/Water (v/v) 0/100, calculated dielectric constant 78.5, 56°C, 8 weeks) was 89.4% and the “% Remaining (8 weeks)” value (5mg/ml, Ethanol/Water (v/v) 25/75, calculated dielectric constant 64.9, 56°C, 8 weeks) was 97.5%. For the same molecule, the “% Remaining (8 weeks)” value (5mg/ml, Ethanol/Water (v/v) 50/50, calculated dielectric constant 51.4, 56°C, 8 weeks) was 99.1%, the remaining at 168 h [1] was 94.8% and the remaining at 336 h [1] was 87.8%. The remaining at 672 h (0.01m citrate buffer, pH 5.7, 5 mg/ml in 0.01M citrate buffer pH 5.7, 56°C, 4 weeks, average of duplicate samples, read-out: % Remaining(a) (pH 5.7)) was 77.2%, the remaining at 1344 h (0.01m citrate buffer, pH 5.7, 5 mg/ml in 0.01M citrate buffer pH 5.7, 56°C, 8 weeks, average of duplicate samples, read-out: % Remaining(a) (pH 5.7)) was 58.9% and the remaining at 168 h [2] was 93.6%. For the same molecule, the remaining at 336 h [2] was 87.9%, the remaining at 672 h (0.01m citrate buffer, pH 6.5, 5 mg/ml in 0.01M citrate buffer pH 6.5, 56°C, 4 weeks, average of duplicate samples, read-out: % Remaining(a) (pH 6.5)) was 77.5% and the remaining at 1344 h (0.01m citrate buffer, pH 6.5, 5 mg/ml in 0.01M citrate buffer pH 6.5, 56°C, 8 weeks, average of duplicate samples, read-out: % Remaining(a) (pH 6.5)) was 60.3%. It also gave a remaining at 672 h (5% (w/v) glycerol, 5mg/ml, solvent 5% (w/v) Glycerol, calculated dielectric constant 76.3, 56°C, 4 weeks, read-out: % Remaining (4 weeks)) of 95.1%, a remaining at 1344 h (5% (w/v) glycerol, 5mg/ml, solvent 5% (w/v) Glycerol, calculated dielectric constant 76.3, 56°C, 8 weeks, read-out: %Remaining (8 weeks)) of 90.9% and a remaining at 672 h (15% (w/v) glycerol, 5mg/ml, solvent 15% (w/v) Glycerol, calculated dielectric constant 71.8, 56°C, 4 weeks, read-out: % Remaining (4 weeks)) of 96.5%. The remaining at 1344 h (15% (w/v) glycerol, 5mg/ml, solvent 15% (w/v) Glycerol, calculated dielectric constant 71.8, 56°C, 8 weeks, read-out: %Remaining (8 weeks)) was 94.2%, the remaining at 672 h (25% (w/v) glycerol, 5mg/ml, solvent 25% (w/v) Glycerol, calculated dielectric constant 71.4, 56°C, 4 weeks, read-out: % Remaining (4 weeks)) was 96.8% and the remaining at 1344 h (25% (w/v) glycerol, 5mg/ml, solvent 25% (w/v) Glycerol, calculated dielectric constant 71.4, 56°C, 8 weeks, read-out: %Remaining (8 weeks)) was 95.3%. For the same molecule, the remaining at 672 h (25% (w/v) propylene glycol, 5mg/ml, solvent 25% (w/v) Propylene Glycol, calculated dielectric constant 67.3, 56°C, 4 weeks, read-out: % Remaining (4 weeks)) was 97.7%, the remaining at 1344 h (25% (w/v) propylene glycol, 5mg/ml, solvent 25% (w/v) Propylene Glycol, calculated dielectric constant 67.3, 56°C, 8 weeks, read-out: %Remaining (8 weeks)) was 96.8% and the remaining at 672 h (ethanol/water 0/100, 5mg/ml, Ethanol/Water (v/v) 0/100, calculated dielectric constant 78.5, 56°C, 4 weeks, read-out: % Remaining (4 weeks)) was 94.9%. The remaining at 672 h (ethanol/water 25/75, 5mg/ml, Ethanol/Water (v/v) 25/75, calculated dielectric constant 64.9, 56°C, 4 weeks, read-out: % Remaining (4 weeks)) was 98.7%, the remaining at 672 h (ethanol/water 50/50, 5mg/ml, Ethanol/Water (v/v) 50/50, calculated dielectric constant 51.4, 56°C, 4 weeks, read-out: % Remaining (4 weeks)) was 99.5% and the remaining at 672 h (ethanol/water 75/25, 5mg/ml, Ethanol/Water (v/v) 75/25, calculated dielectric constant 37.8, 56°C, 4 weeks, read-out: % Remaining (4 weeks)) was 99.6%. The remaining at 168 h [3] was 96%, the remaining at 336 h [3] was 91.6% and the remaining at 672 h (isotonic saline, 5mg/ml in isotonic saline, 56°C, 4 weeks, average of duplicate samples, read-out: % Remaining(a) (Isotonic Saline)) was 83.5%. The remaining at 1344 h (isotonic saline, 5mg/ml in isotonic saline, 56°C, 8 weeks, average of duplicate samples, read-out: % Remaining(a) (Isotonic Saline)) was 66.9%, the remaining at 168 h [4] was 97.4% and the remaining at 336 h [4] was 95.5%. The remaining at 672 h (water, 5mg/ml in water, 56°C, 4 weeks, average of duplicate samples, read-out: % Remaining(a) (Water)) was 90.8%, the remaining at 1344 h (water, 5mg/ml in water, 56°C, 8 weeks, average of duplicate samples, read-out: % Remaining(a) (Water)) was 80.5% and the remaining at 672 h (water, 5mg/ml, solvent Water, calculated dielectric constant 78.5, 56°C, 4 weeks (Table 4), read-out: % Remaining (4 weeks)) was 94.9%. For the same molecule, the remaining at 1344 h (water, 5mg/ml, solvent Water, calculated dielectric constant 78.5, 56°C, 8 weeks (Table 4), read-out: %Remaining (8 weeks)) was 88.1%.
